Measurements taken from EP2801357A1, “Carboxylated stilbenes for activating AMPK and sirtuins” (IMD Natural Solutions GmbH, priority 2013, dated 2014).
Marks after values point to notes of the source that are not given here.

Assays:
Sirt3 = target: T1, Sirt3 (Homo sapiens, UniProt Q9NTG7); assay: SIRT3 Fluorimetric Drug Discovery Kit, Sirt3 activation; type: biochemical
T1 construct: purchased BioMol, Hamburg, Germany
T1 sequence (Q9NTG7 1-399): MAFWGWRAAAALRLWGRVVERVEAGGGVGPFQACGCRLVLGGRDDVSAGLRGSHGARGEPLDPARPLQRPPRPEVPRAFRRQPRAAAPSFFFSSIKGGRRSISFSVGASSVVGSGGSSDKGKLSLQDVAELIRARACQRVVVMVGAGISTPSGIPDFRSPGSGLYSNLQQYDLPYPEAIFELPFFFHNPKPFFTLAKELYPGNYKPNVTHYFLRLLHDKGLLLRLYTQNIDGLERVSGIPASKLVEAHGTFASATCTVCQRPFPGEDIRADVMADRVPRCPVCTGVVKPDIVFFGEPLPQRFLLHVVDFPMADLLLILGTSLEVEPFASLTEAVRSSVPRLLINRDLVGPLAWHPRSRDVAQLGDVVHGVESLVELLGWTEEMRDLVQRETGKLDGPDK

[1] = tested on: normal human dermal fibroblasts (NHDF); assay: Mitochondria content of NHDF, Mito-ID Green Detection Kit; type: cell-based
Procedure: (§1) The effect of compound (I-1) on mitochondria biosynthesis was investigated in normal human dermal fibroblasts (NHDF). NHDF were obtained from PromoCell (Lot No. 006151; donor; from eyelid skin) and cultivated in Fibroblast Growth Medium (PromoCell; Cat. No. C-023020) supplemented with Supplement Mix (PromoCell; Cat. No. C-039215) at 37 °C /5% CO2. NHDF were seeded in flat-bottom 96-well plates (5000 cells / well) and incubated in said medium for 24 h or 48 h, respectively, with the compounds present in concentrations ranging from 0.03 µM to 200 µM. Mitochondria content was analyzed using the Mito-ID® Green Detection Kit for fluorescence microscopy (Enzo Life Sciences; Cat. No. ENZ-51055-K500). Fluorometric analysis was done using a Spectramax plate reader (Molecular Devices) and following the manufacturer's protocol. Cytotoxicity was determined in parallel by fluorometric readout using the Resazurin Based In Vitro Toxicology Assay Kit (Sigma Aldrich, Cat. No. TOX-8), and following the manufacturer's protocol.

[2] = tested on: normal human dermal fibroblasts (NHDF); assay: Resazurin based cytotoxicity assay in NHDF; type: cell-based; details: 24 h and 48 h, 0.03 µM to 200 µM
Procedure: as §1

remaining activity at 0.3 µM (Sirt3; Example 2, Table 5, 0.3 µM, read-out: Activity [% control]): 109%
remaining activity at 1 µM (Sirt3; Example 2, Table 5, 1.0 µM, read-out: Activity [% control]): 124%
remaining activity at 3 µM (Sirt3; Example 2, Table 5, 3.0 µM, read-out: Activity [% control]): 156%
remaining activity at 10 µM (Sirt3; Example 2, Table 5, 10.0 µM, read-out: Activity [% control]): 216%
remaining activity at 30 µM (Sirt3; Example 2, Table 5, 30.0 µM, read-out: Activity [% control]): 247%
EC300 (Sirt3; Example 2, Table 6, Sirt3, footnote for (I-1): clear activation in dose-response curve visible): >30* µM
Compound: CCOC(=O)c1c(O)cccc1/C=C/c1ccc(OCC)cc1 [(I-1)]
Signal intensity [% Control] ([1]; 24 h incubation time, 0.03 µM): 100 % Control
Signal intensity [% Control] ([1]; 24 h incubation time, 0.09 µM): 99 % Control
Signal intensity [% Control] ([1]; 24 h incubation time, 0.27 µM): 100 % Control
Signal intensity [% Control] ([1]; 24 h incubation time, 0.82 µM): 101 % Control
Signal intensity [% Control] ([1]; 24 h incubation time, 2.47 µM): 103 % Control
Signal intensity [% Control] ([1]; 24 h incubation time, 7.41 µM): 114 % Control
Signal intensity [% Control] ([1]; 24 h incubation time, 22.22 µM): 182 % Control
Signal intensity [% Control] ([1]; 24 h incubation time, 66.67 µM): 354 % Control
Signal intensity [% Control] ([1]; 24 h incubation time, 200.00 µM): 906 % Control
Signal intensity [% Control] ([1]; 48 h incubation time, 0.03 µM): 97 % Control
Signal intensity [% Control] ([1]; 48 h incubation time, 0.09 µM): 92 % Control
Signal intensity [% Control] ([1]; 48 h incubation time, 0.27 µM): 91 % Control
Signal intensity [% Control] ([1]; 48 h incubation time, 0.82 µM): 93 % Control
Signal intensity [% Control] ([1]; 48 h incubation time, 2.47 µM): 94 % Control
Signal intensity [% Control] ([1]; 48 h incubation time, 7.41 µM): 103 % Control
Signal intensity [% Control] ([1]; 48 h incubation time, 22.22 µM): 147 % Control
Signal intensity [% Control] ([1]; 48 h incubation time, 66.67 µM): 293 % Control
Signal intensity [% Control] ([1]; 48 h incubation time, 200.00 µM): 765 % Control
concentrations with significant enhancement of mitochondria biosynthesis ([1]; NHDF, 24 h and 48 h): ≥ 10 µM
cytotoxicity or loss of cell viability [2]: no cytotoxicity or loss of cell viability
